# According to PubChem BioAssay (NCI):
#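 Method: 48-hour compound exposure of cells in 96-well plates, five concentrations, linear interpolation of endpoints. GI50 marks 50% less growth. TGI: concentration producing complete growth inhibition.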
# Key:
# Test in all cases: NCI-60 cell line screen, 48 h
# [1] = test system: 786-0 renal
# [2] = test system: A498 renal
# [3] = test system: A549 NSCLC
# [4] = test system: BT-549 breast
# [5] = test system: CAKI-1 renal
# [6] = test system: CCRF-CEM leukemia
# [7] = test system: COLO 205 colon
# [8] = test system: DU-145 prostate
# [9] = test system: EKVX NSCLC
# [10] = test system: HCC-2998 colon
# [11] = test system: HCT-116 colon
# [12] = test system: HCT-15 colon
# [13] = test system: HL-60(TB) leukemia
# [14] = test system: HOP-62 NSCLC
# [15] = test system: HOP-92 NSCLC
# [16] = test system: HS 578T breast
# [17] = test system: HT29 colon
# [18] = test system: IGROV1 ovarian
# [19] = test system: KM12 colon
# [20] = test system: LOX IMVI melanoma
# [21] = test system: M14 melanoma
# [22] = test system: MALME-3M melanoma
# [23] = test system: MCF7 breast
# [24] = test system: MDA-MB-231 breast
# [25] = test system: MDA-MB-435
# [26] = test system: MDA-N
# [27] = test system: MOLT-4 leukemia
# [28] = test system: NCI-H226 lung
# [29] = test system: NCI-H23 lung
# [30] = test system: NCI-H460 lung
# [31] = test system: NCI-H522 lung
# [32] = test system: NCI/ADR-RES ovarian
# [33] = test system: OVCAR-3 ovarian
# [34] = test system: OVCAR-4 ovarian
# [35] = test system: OVCAR-5 ovarian
# [36] = test system: OVCAR-8 ovarian
# [37] = test system: RPMI-8226 leukemia
# [38] = test system: RXF 393 renal
# [39] = test system: SF-268 CNS
# [40] = test system: SF-295 CNS
# [41] = test system: SF-539 CNS
# [42] = test system: SK-MEL-2 melanoma
# [43] = test system: SK-MEL-28 melanoma
# [44] = test system: SK-MEL-5 melanoma
# [45] = test system: SK-OV-3 ovarian
# [46] = test system: SN12C renal
# [47] = test system: SNB-19 CNS
# [48] = test system: SR leukemia
# [49] = test system: SW-620 colon
# [50] = test system: T-47D breast
# [51] = test system: U251 CNS
# [52] = test system: UACC-257 melanoma
# [53] = test system: UACC-62 melanoma
# [54] = test system: UO-31 renal
# [55] = test system: ACHN renal
# [56] = test system: K-562 leukemia
# [57] = test system: PC-3 prostate
# [58] = test system: SNB-75 CNS
# [59] = test system: TK-10 renal
structure (smiles),measurement,setting,value
O=C(Nc1ccc2[nH]c(C(=O)N3CC(CCl)c4c3cc([N+](=O)[O-])c3ccccc43)cc2c1)c1cc2ccccc2o1 (configuration not stated),GI50,[1],> 1100 µM
same,TGI,[1],> 1100 µM
same,GI50,[2],> 1100 µM
same,TGI,[2],> 1100 µM
same,GI50,[3],> 1100 µM
same,TGI,[3],> 1100 µM
same,GI50,[4],> 1100 µM
same,TGI,[4],> 1100 µM
same,GI50,[5],> 1100 µM
same,TGI,[5],> 1100 µM
same,GI50,[6],66.4 µM
same,TGI,[6],377 µM
same,GI50,[7],> 1100 µM
same,TGI,[7],> 1100 µM
same,GI50,[8],> 1100 µM
same,TGI,[8],> 1100 µM
same,GI50,[9],> 1100 µM
same,TGI,[9],> 1100 µM
same,GI50,[10],57.7 µM
same,TGI,[10],> 1100 µM
same,GI50,[11],> 1100 µM
same,TGI,[11],> 1100 µM
same,GI50,[12],> 1100 µM
same,TGI,[12],> 1100 µM
same,GI50,[13],33.2 µM
same,TGI,[13],380 µM
same,GI50,[14],> 1100 µM
same,TGI,[14],> 1100 µM
same,GI50,[15],> 1100 µM
same,TGI,[15],> 1100 µM
same,GI50,[16],> 1100 µM
same,TGI,[16],> 1100 µM
same,GI50,[17],> 1100 µM
same,TGI,[17],> 1100 µM
same,GI50,[18],> 1100 µM
same,TGI,[18],> 1100 µM
same,GI50,[19],> 1100 µM
same,TGI,[19],> 1100 µM
same,GI50,[20],> 1100 µM
same,TGI,[20],> 1100 µM
same,GI50,[21],> 1100 µM
same,TGI,[21],> 1100 µM
same,GI50,[22],> 1100 µM
same,TGI,[22],> 1100 µM
same,GI50,[23],> 1100 µM
same,TGI,[23],> 1100 µM
same,GI50,[24],> 1100 µM
same,TGI,[24],> 1100 µM
same,GI50,[25],> 1100 µM
same,TGI,[25],> 1100 µM
same,GI50,[26],> 1100 µM
same,TGI,[26],> 1100 µM
same,GI50,[27],180 µM
same,TGI,[27],> 1100 µM
same,GI50,[28],> 1100 µM
same,TGI,[28],> 1100 µM
same,GI50,[29],> 1100 µM
same,TGI,[29],> 1100 µM
same,GI50,[30],21 µM
same,TGI,[30],> 1100 µM
same,GI50,[31],> 1100 µM
same,TGI,[31],> 1100 µM
same,GI50,[32],> 1100 µM
same,TGI,[32],> 1100 µM
same,GI50,[33],> 1100 µM
same,TGI,[33],> 1100 µM
same,GI50,[34],> 1100 µM
same,TGI,[34],> 1100 µM
same,GI50,[35],> 1100 µM
same,TGI,[35],> 1100 µM
same,GI50,[36],> 1100 µM
same,TGI,[36],> 1100 µM
same,GI50,[37],> 1100 µM
same,TGI,[37],> 1100 µM
same,TGI,[38],> 1100 µM
same,GI50,[39],> 1100 µM
same,TGI,[39],> 1100 µM
same,TGI,[40],> 1100 µM
same,TGI,[41],> 1100 µM
same,GI50,[42],> 1100 µM
same,TGI,[42],> 1100 µM
same,GI50,[43],> 1100 µM
same,TGI,[43],> 1100 µM
same,GI50,[44],> 1100 µM
same,TGI,[44],> 1100 µM
same,GI50,[45],> 1100 µM
same,TGI,[45],> 1100 µM
same,GI50,[46],> 1100 µM
same,TGI,[46],> 1100 µM
same,GI50,[47],> 1100 µM
same,TGI,[47],> 1100 µM
same,GI50,[48],35.2 µM
same,TGI,[48],> 1100 µM
same,GI50,[49],> 1100 µM
same,TGI,[49],> 1100 µM
same,GI50,[50],> 1100 µM
same,TGI,[50],> 1100 µM
same,GI50,[51],> 1100 µM
same,TGI,[51],> 1100 µM
same,GI50,[52],> 1100 µM
same,TGI,[52],> 1100 µM
same,GI50,[53],> 1100 µM
same,TGI,[53],> 1100 µM
same,GI50,[54],> 1100 µM
same,TGI,[54],> 1100 µM
COc1ccc(N=N/C(=N/NC(=O)c2cc(Cl)ccc2C(=O)c2ccccc2)c2ccc(N(CCC#N)CCC#N)cc2C)cc1,TGI,[1],86.7 µM
same,TGI,[3],> 100 µM
same,TGI,[55],88.7 µM
same,TGI,[4],> 100 µM
same,TGI,[5],46 µM
same,TGI,[6],19.8 µM
same,TGI,[7],42.9 µM
same,TGI,[8],> 100 µM
same,TGI,[9],61.1 µM
same,TGI,[10],70.8 µM
same,TGI,[11],33.5 µM
same,TGI,[12],65.7 µM
same,TGI,[14],81.2 µM
same,TGI,[16],> 100 µM
same,TGI,[17],60.8 µM
same,TGI,[18],27.7 µM
same,TGI,[56],> 100 µM
same,TGI,[19],> 100 µM
same,TGI,[21],92 µM
same,TGI,[22],94.7 µM
same,TGI,[23],> 100 µM
same,TGI,[24],58.1 µM
same,TGI,[25],> 100 µM
same,TGI,[26],> 100 µM
same,TGI,[27],33.8 µM
same,TGI,[28],66.3 µM
same,TGI,[29],61.9 µM
same,TGI,[30],45.3 µM
same,TGI,[32],59.1 µM
same,TGI,[33],27.9 µM
same,TGI,[34],> 100 µM
same,TGI,[35],70 µM
same,TGI,[36],46.1 µM
same,TGI,[57],41.4 µM
same,TGI,[37],44.4 µM
same,TGI,[38],30.4 µM
same,TGI,[39],> 100 µM
same,TGI,[40],> 100 µM
same,TGI,[42],50 µM
same,TGI,[43],> 100 µM
same,TGI,[44],31.6 µM
same,TGI,[45],> 100 µM
same,TGI,[46],47.1 µM
same,TGI,[47],> 100 µM
same,TGI,[58],> 100 µM
same,TGI,[49],> 100 µM
same,TGI,[50],47.4 µM
same,TGI,[59],75.1 µM
same,TGI,[51],> 100 µM
same,TGI,[52],81 µM
same,TGI,[53],51.8 µM
same,TGI,[54],79.3 µM
O=C(O)C1C(=O)Oc2c(cccc2[N+](=O)[O-])C1O (configuration not stated),TGI,[1],> 100 µM
same,TGI,[2],> 100 µM
same,TGI,[3],> 100 µM
same,TGI,[55],> 100 µM
same,TGI,[4],> 100 µM
same,TGI,[5],> 100 µM
same,TGI,[6],> 100 µM
same,TGI,[7],> 100 µM
same,TGI,[8],> 100 µM
same,TGI,[9],> 100 µM
same,TGI,[10],> 100 µM
same,TGI,[11],> 100 µM
same,TGI,[12],> 100 µM
same,TGI,[13],> 100 µM
same,TGI,[14],> 100 µM
same,TGI,[15],> 100 µM
same,TGI,[16],> 100 µM
same,TGI,[17],> 100 µM
same,TGI,[18],> 100 µM
same,TGI,[56],> 100 µM
same,TGI,[20],> 100 µM
same,TGI,[21],> 100 µM
same,TGI,[22],> 100 µM
same,TGI,[24],> 100 µM
same,TGI,[25],> 100 µM
same,TGI,[26],> 100 µM
same,TGI,[27],> 100 µM
same,TGI,[28],> 100 µM
same,TGI,[29],> 100 µM
same,TGI,[30],> 100 µM
same,TGI,[31],> 100 µM
same,TGI,[32],> 100 µM
same,TGI,[33],> 100 µM
same,TGI,[34],> 100 µM
same,TGI,[35],> 100 µM
same,TGI,[36],> 100 µM
same,TGI,[57],> 100 µM
same,TGI,[37],> 100 µM
same,TGI,[38],> 100 µM
same,TGI,[39],> 100 µM
same,TGI,[40],> 100 µM
same,TGI,[41],> 100 µM
same,TGI,[42],> 100 µM
same,TGI,[43],> 100 µM
same,TGI,[44],> 100 µM
same,TGI,[46],> 100 µM
same,TGI,[47],> 100 µM
same,TGI,[58],> 100 µM
same,TGI,[48],> 100 µM
same,TGI,[49],> 100 µM
same,TGI,[50],> 100 µM
same,TGI,[59],> 100 µM
same,TGI,[51],> 100 µM
same,TGI,[52],> 100 µM
same,TGI,[53],> 100 µM
